PMC3871595, “Structure Based Identification and Characterization of Flavonoids That Disrupt Human Papillomavirus-16 E6 Function” (PLoS ONE, 2013)

Assays:
[1] = molecular target: GBF-E6 binding to E6apc2 peptide (Human papillomavirus type 16, UniProt P03126); assay: SPR competition, immobilized E6apc2 peptide, GBF-E6 analyte; design: species or system HPV-16; conditions: 1.6-12.5 µM
Description: The E6apc2 peptide was derived from the third zinc finger of the Sp1 protein and incorporates 10 amino acids from the charged helical domain of E6AP ([…]) at its C-terminus. […] In this experiment, E6apc2 was immobilized while E6apc1 control (E6-non-binder) was immobilized in a reference cell.
SPR analysis was performed on a Biacore 3000 instrument. Immobilized GBFE6 [43] was diluted to 30μg/mL in 10 mM sodium acetate, pH 4.0 and 5.0 and immobilized onto the dextran matrix of a CM5 sensor chip (Biacore) using the amine coupling method. All binding experiments were performed at 25 °C in 50 mM phosphate (pH 6.5) containing 200 mM NaCl. Pulses of 10 mM glycine (pH 3.0) were used to regenerate the surfaces between injections. […] SPR data were analyzed using BIAevaluation 4.1 software (Biacore).

[2] = system: interaction between anti-FLAG antibody and the FLAG epitope in the E6AP-BAP fusion; assay: FLAG/BAP specificity filter binding assay
Description: The collection of 72 available structural-lead compounds was tested in the filter-plate based in vitro E6-E6AP binding assay. Compounds were tested twice at concentrations of 10, 50, and 100 µM. […] Compounds that disrupted the Flag-BAP interaction with the same potency as the HPV-16 E6 and E6AP interaction were classified as non-specific and eliminated from further analysis.
Figure 3 Activity of flavonoids in the in vitro binding assay. Compounds were tested in vitro for the ability to disrupt the E6-E6AP interaction. […] Percent inhibition was determined by the amount of BAP activity remaining in the well after washing and normalized to DMSO. Data was plotted by linear regression for single site binding using Prism (n=3, S.E.M.).
(§1) This interaction between E6 and hDlg occurs at the C-terminus of E6 and is independent of the interaction between E6 and the charged leucine helix in E6AP [21, 22].

[3] = molecular target: T1, interaction between GST-E6 and three PDZ domains of hDlg fused to BAP (hDlg-BAP) (Human papillomavirus type 16, UniProt P03126); assay: E6/hDlg-BAP specificity filter binding assay; design: species or system HPV-16
T1 construct: made in house; host or cells: E. coli BL21
Description: as §1
Pre-Block - 96-well filter plates were prepared (0.2 µm BioTrace NT, Pall). 100µL of blocking buffer (100 mM Tris pH 8.0, 100 mM NaCl, 0.1% milk) was added per well. Plates were blocked for 1 hr at RT on an orbital shaker. Buffer was removed by vacuum filtration using a vacuum manifold. GST-E6 Bead addition – GST-E6 beads were prepared at 5µg/mL in GST-E6 bead buffer (100 mM Tris pH 8.0, 100 mM NaCl, 0.1% milk, 2.5 mM DTT). 100µL of GST-E6 bead mix was added per well and incubated for 1 hr at 4°C. Buffer was removed by vacuum filtration. […] 48 µL of each reagent was added per well. For drug assay, 2µL of compound was added to each well and mixed thoroughly. […] Plates were incubated for 1-3 hours at RT on an orbital shaker. Buffer was removed by vacuum filtration. Plates were washed on the vacuum manifold, first with 200 µL buffer (100 mM Tris pH 8.0, 100 mM NaCl, 1 mM DTT), and twice more with 100µL lysis buffer without DTT. […] 60 µL of Immunostar-AP assay reagent was added, the BAP activity was allowed to develop for 10 minutes and the plates were read on a Wallace Luminometer. BAP activity was measured as relative light units (RLU) on a luminometer using the Immunostar-AP substrate (BioRad).

RPE-1 cells = assay: cell viability (MTS, Celltiter 96 AQueous) RPE-1; assay type: cell-based, human; conditions: RPE-1 (HPV negative), 48 to 96 hours, relative to DMSO
C33a cells = assay: cell viability (MTS, Celltiter 96 AQueous) C33a; assay type: cell-based, human; conditions: C33a (HPV negative), 48 to 96 hours, relative to DMSO
Description: (§2) HPV-18 positive HeLa cells and two additional control cell lines, C33a, a cell line derived from an HPV-negative human cervical cancer isolate, and HaCat, a spontaneously immortalized human keratinocyte cell line, were used to assess compounds for their impact on cell growth and viability. All cells were incubated for 48 to 96 hours with increasing doses of compound. Cell viability was measured by MTS based assay and % viability quantified relative to cells treated with DMSO.
(§3) For cell viability, 12,000 cells per cm^2 were plated in 96-well dishes 24 hours prior to drug addition. Fresh media and compound were added. Plates were read after 72-96 hours. Relative cell viability was assayed as directed in the Celltiter 96 AQueous one solution assay (Promega). For caspase activity, plates were assayed after 4, 8, 12, 24, or 48 hours as described for the Caspase-Glo 3/7 assay (Promega).

HaCat cells = assay: cell viability (MTS, Celltiter 96 AQueous) HaCat; assay type: cell-based, human; conditions: HaCat (HPV negative), 48 to 96 hours, relative to DMSO
Description: as §2, §3

primary HFKs = assay: cell viability (MTS, Celltiter 96 AQueous) primary HFKs; assay type: cell-based, human; conditions: 48 hours, relative to DMSO

T1 sequence (P03126 whole entry, the tested form may be a part): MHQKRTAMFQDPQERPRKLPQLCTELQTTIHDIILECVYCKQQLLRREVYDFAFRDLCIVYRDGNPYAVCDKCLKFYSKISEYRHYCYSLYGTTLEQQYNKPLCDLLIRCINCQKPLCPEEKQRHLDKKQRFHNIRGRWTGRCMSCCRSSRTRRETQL
GBF-E6 binding to E6apc2 peptide, sequence (P03126 whole entry, the tested form may be a part): as above

Question: With `O=c1cc(-c2ccc(O)c(O)c2)oc2cc(O)cc(O)c12` [luteolin, reference compound] as the compound, how does the “competition with E6apc2 peptide for binding to GBF-E6” value [1] read?
Answer: directly competed with the peptide for binding to GBF-E6

Question: With `COc1cccc(-c2cc(=O)c3cc(-c4nnn[nH]4)ccc3o2)c1` [CAF-24] as the compound, how does the “non-specific inhibition / specificity in FLAG-E6AP control assay” value [2] read?
Answer: increased specificity against the FLAG and hDlg control binding reactions

Question: What about the “specificity against hDlg control binding reaction” value [3] of the same compound?
Answer: increased specificity against the FLAG and hDlg control binding reactions

Question: And the “cell growth and viability” value (RPE-1 cells)?
Answer: little effect on the viability

Question: What about the “cell growth and viability” value (C33a cells) of the same compound?
Answer: little effect on the viability

Question: And the “cell growth and viability” value (HaCat cells)?
Answer: little effect on the viability

Question: What about the “cell growth and viability” value (primary HFKs) of the same compound?
Answer: to a lesser extent, inhibit growth of the primary HFKs
